Source: ChEMBL document CHEMBL1201862, “PubChem BioAssay data set” (2004)
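96-well plates; 48 h exposure; 5 concentrations. Endpoints by linear interpolation between flanking doses. Not reached: highest tested concentration assigned. Abbreviation: GI50, concentration required for 50% inhibition of growth.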 Activity calls are given as the source filed them. No stated cut-off is given here; in the data, active = GI50 up to about 1.1 µM and inactive = higher.

Legend:
Assay in all cases: inhibition of tumour cell growth, NCI panel, 48 h
786-0 = tested on: 786-0
A498 = tested on: A498
A549 = tested on: A549
ACHN = tested on: ACHN
CAKI-1 = tested on: CAKI-1
CCRF-CEM = tested on: CCRF-CEM
DLD-1 = tested on: DLD-1
DMS-114 = tested on: DMS-114
DMS-273 = tested on: DMS-273
EKVX = tested on: EKVX
HCC 2998 = tested on: HCC 2998
HCT-116 = tested on: HCT-116
HCT-15 = tested on: HCT-15
HL-60 = tested on: HL-60
HOP-18 = tested on: HOP-18
HOP-92 = tested on: HOP-92
HT-29 = tested on: HT-29
K562 = tested on: K562
KM-20L2 = tested on: KM-20L2
KM12 = tested on: KM12
LOX IMVI = tested on: LOX IMVI
LXFL 529 = tested on: LXFL 529
M14 = tested on: M14
M19-MEL = tested on: M19-MEL
MOLT-4 = tested on: MOLT-4
Malme-3M = tested on: Malme-3M
NCI-H226 = tested on: NCI-H226
NCI-H23 = tested on: NCI-H23
NCI-H460 = tested on: NCI-H460
OVCAR-3 = tested on: OVCAR-3
OVCAR-4 = tested on: OVCAR-4
OVCAR-5 = tested on: OVCAR-5
OVCAR-8 = tested on: OVCAR-8
RPMI-8226 = tested on: RPMI-8226
RXF 393 = tested on: RXF 393
SF-268 = tested on: SF-268
SF-295 = tested on: SF-295
SF-539 = tested on: SF-539
SK-MEL-28 = tested on: SK-MEL-28
SK-MEL-2 = tested on: SK-MEL-2
SK-MEL-5 = tested on: SK-MEL-5
SN12C = tested on: SN12C
SNB-19 = tested on: SNB-19
SNB-75 = tested on: SNB-75
SNB-78 = tested on: SNB-78
SR = tested on: SR
SW-620 = tested on: SW-620
TK-10 = tested on: TK-10
U-251 = tested on: U-251
UACC-257 = tested on: UACC-257
UACC-62 = tested on: UACC-62
UO-31 = tested on: UO-31
COLO 205 = tested on: COLO 205
HOP-62 = tested on: HOP-62
IGROV-1 = tested on: IGROV-1
SK-OV-3 = tested on: SK-OV-3
NCI-H522 = tested on: NCI-H522

With `CSCSCC(CO)NC(=O)/C=C/c1c(C)nc(O)nc1O` (configuration not stated) the GI50 (786-0) was > 100 µM (inactive), the GI50 (A498) was > 100 µM (inactive) and the GI50 (A549) was > 100 µM (inactive). For the same molecule, the GI50 (ACHN) was > 100 µM (inactive), the GI50 (CAKI-1) was 56.6 µM (inactive) and the GI50 (CCRF-CEM) was 44.4 µM (inactive). The GI50 (DLD-1) was > 100 µM (inactive), the GI50 (DMS-114) was 64.9 µM (inactive) and the GI50 (DMS-273) was > 100 µM (inactive). The GI50 (EKVX) was 57.1 µM (inactive), the GI50 (HCC 2998) was > 100 µM (inactive) and the GI50 (HCT-116) was > 100 µM (inactive). The GI50 (HCT-15) was > 100 µM, the GI50 (HL-60) was > 100 µM (inactive) and the GI50 (HOP-18) was > 100 µM (inactive). The GI50 (HOP-92) was > 100 µM (inactive), the GI50 (HT-29) was > 100 µM (inactive) and the GI50 (K562) was 39.7 µM (inactive). For the same molecule, the GI50 (KM-20L2) was 46.8 µM (inactive), the GI50 (KM12) was > 100 µM (inactive) and the GI50 (LOX IMVI) was > 100 µM (inactive). The GI50 (LXFL 529) was > 100 µM (inactive), the GI50 (M14) was > 100 µM (inactive) and the GI50 (M19-MEL) was 84.3 µM (inactive). For the same molecule, the GI50 (MOLT-4) was 96.6 µM (inactive), the GI50 (Malme-3M) was > 100 µM (inactive) and the GI50 (NCI-H226) was > 100 µM (inactive). For the same molecule, the GI50 (NCI-H23) was > 100 µM (inactive), the GI50 (NCI-H460) was > 100 µM (inactive) and the GI50 (OVCAR-3) was 26.4 µM (inactive). For the same molecule, the GI50 (OVCAR-4) was 37 µM (inactive), the GI50 (OVCAR-5) was > 100 µM (inactive) and the GI50 (OVCAR-8) was > 100 µM (inactive). The GI50 (RPMI-8226) was > 100 µM (inactive), the GI50 (RXF 393) was > 100 µM (inactive) and the GI50 (SF-268) was 30.8 µM (inactive). The GI50 (SF-295) was > 100 µM (inactive), the GI50 (SF-539) was > 100 µM (inactive) and the GI50 (SK-MEL-28) was > 100 µM (inactive). For the same molecule, the GI50 (SK-MEL-2) was 89.9 µM (inactive), the GI50 (SK-MEL-5) was > 100 µM (inactive) and the GI50 (SN12C) was > 100 µM (inactive). The GI50 (SNB-19) was 28.8 µM (inactive), the GI50 (SNB-75) was > 100 µM (inactive) and the GI50 (SNB-78) was > 100 µM (inactive). For the same molecule, the GI50 (SR) was 56.4 µM (inactive), the GI50 (SW-620) was > 100 µM (inactive) and the GI50 (TK-10) was > 100 µM (inactive). The GI50 (U-251) was 64.3 µM (inactive), the GI50 (UACC-257) was > 100 µM (inactive) and the GI50 (UACC-62) was > 100 µM (inactive). For the same molecule, the GI50 (UO-31) was > 100 µM (inactive).

With `Cc1c(C(=O)NCCO)[n+]([O-])c2cc(Cl)ccc2[n+]1[O-]` the GI50 (786-0) was > 100 µM (inactive), the GI50 (A498) was > 100 µM (inactive) and the GI50 (A549) was > 100 µM (inactive). The GI50 (ACHN) was > 100 µM (inactive), the GI50 (CCRF-CEM) was > 100 µM (inactive) and the GI50 (COLO 205) was > 100 µM (inactive). For the same molecule, the GI50 (DLD-1) was > 100 µM (inactive), the GI50 (DMS-114) was > 100 µM (inactive) and the GI50 (DMS-273) was > 100 µM (inactive). For the same molecule, the GI50 (EKVX) was > 100 µM (inactive), the GI50 (HCC 2998) was > 100 µM (inactive) and the GI50 (HCT-116) was > 100 µM (inactive). For the same molecule, the GI50 (HCT-15) was > 100 µM, the GI50 (HL-60) was > 100 µM (inactive) and the GI50 (HOP-18) was > 100 µM (inactive). For the same molecule, the GI50 (HOP-62) was > 100 µM (inactive), the GI50 (HOP-92) was > 100 µM (inactive) and the GI50 (HT-29) was > 100 µM (inactive). For the same molecule, the GI50 (IGROV-1) was > 100 µM (inactive), the GI50 (K562) was > 100 µM (inactive) and the GI50 (KM-20L2) was > 100 µM (inactive). For the same molecule, the GI50 (KM12) was > 100 µM (inactive), the GI50 (LOX IMVI) was > 100 µM (inactive) and the GI50 (LXFL 529) was > 100 µM (inactive). The GI50 (M14) was > 100 µM (inactive), the GI50 (M19-MEL) was > 100 µM (inactive) and the GI50 (MOLT-4) was > 100 µM (inactive). The GI50 (Malme-3M) was > 100 µM (inactive), the GI50 (NCI-H23) was > 100 µM (inactive) and the GI50 (NCI-H460) was > 100 µM (inactive). The GI50 (OVCAR-3) was > 100 µM (inactive), the GI50 (OVCAR-4) was > 100 µM (inactive) and the GI50 (OVCAR-5) was > 100 µM (inactive). For the same molecule, the GI50 (OVCAR-8) was > 100 µM (inactive), the GI50 (RPMI-8226) was > 100 µM (inactive) and the GI50 (RXF 393) was > 100 µM (inactive). The GI50 (SF-268) was > 100 µM (inactive), the GI50 (SF-295) was > 100 µM (inactive) and the GI50 (SF-539) was > 100 µM (inactive). The GI50 (SK-MEL-28) was > 100 µM (inactive), the GI50 (SK-MEL-5) was > 100 µM (inactive) and the GI50 (SK-OV-3) was 86.9 µM (inactive). For the same molecule, the GI50 (SN12C) was > 100 µM (inactive), the GI50 (SNB-19) was > 100 µM (inactive) and the GI50 (SNB-75) was 48.5 µM (inactive). The GI50 (SNB-78) was > 100 µM (inactive), the GI50 (SR) was > 100 µM (inactive) and the GI50 (SW-620) was > 100 µM (inactive). For the same molecule, the GI50 (TK-10) was > 100 µM (inactive), the GI50 (U-251) was > 100 µM (inactive) and the GI50 (UACC-257) was > 100 µM (inactive). For the same molecule, the GI50 (UACC-62) was > 100 µM (inactive) and the GI50 (UO-31) was > 100 µM (inactive).

`COc1ccc(/C=C/C(=O)c2c(-c3ccccc3)nn(C)c(=O)c2N2CC2C)cc1` (configuration not stated) was tested, and the GI50 (786-0) was 36.4 µM (inactive), the GI50 (A498) was 23.9 µM (inactive) and the GI50 (A549) was 43.2 µM (inactive). For the same molecule, the GI50 (ACHN) was 36.2 µM (inactive), the GI50 (CAKI-1) was 44.5 µM (inactive) and the GI50 (CCRF-CEM) was 22.9 µM (inactive). The GI50 (COLO 205) was 34.3 µM (inactive), the GI50 (DLD-1) was 26.1 µM (inactive) and the GI50 (DMS-114) was 24.7 µM (inactive). For the same molecule, the GI50 (DMS-273) was 21 µM (inactive), the GI50 (EKVX) was 19.6 µM (inactive) and the GI50 (HCC 2998) was 26.6 µM (inactive). For the same molecule, the GI50 (HCT-116) was 36.1 µM (inactive), the GI50 (HCT-15) was 24.3 µM and the GI50 (HL-60) was 17.5 µM (inactive). For the same molecule, the GI50 (HOP-18) was 27.5 µM (inactive), the GI50 (HOP-62) was 35.6 µM (inactive) and the GI50 (HOP-92) was 29 µM (inactive). The GI50 (HT-29) was 32.4 µM (inactive), the GI50 (IGROV-1) was 59.3 µM (inactive) and the GI50 (K562) was 26.2 µM (inactive). For the same molecule, the GI50 (KM-20L2) was 23.9 µM (inactive), the GI50 (KM12) was 30.3 µM (inactive) and the GI50 (LOX IMVI) was 16.3 µM (inactive). For the same molecule, the GI50 (LXFL 529) was 25.1 µM (inactive), the GI50 (M14) was 28.8 µM (inactive) and the GI50 (M19-MEL) was 49.9 µM (inactive). For the same molecule, the GI50 (MOLT-4) was 25.5 µM (inactive), the GI50 (Malme-3M) was 35.7 µM (inactive) and the GI50 (NCI-H226) was 45.3 µM (inactive). For the same molecule, the GI50 (NCI-H23) was 19 µM (inactive), the GI50 (NCI-H460) was 27.5 µM (inactive) and the GI50 (NCI-H522) was 22.7 µM (inactive). For the same molecule, the GI50 (OVCAR-3) was 24.3 µM (inactive), the GI50 (OVCAR-4) was 27.9 µM (inactive) and the GI50 (OVCAR-5) was 37.6 µM (inactive). For the same molecule, the GI50 (OVCAR-8) was 32.4 µM (inactive), the GI50 (RXF 393) was 27.9 µM (inactive) and the GI50 (SF-268) was 26.8 µM (inactive). The GI50 (SF-295) was 33.8 µM (inactive), the GI50 (SF-539) was 39.1 µM (inactive) and the GI50 (SK-MEL-28) was 52.6 µM (inactive). For the same molecule, the GI50 (SK-MEL-2) was 21.8 µM (inactive), the GI50 (SK-MEL-5) was 29.4 µM (inactive) and the GI50 (SK-OV-3) was 30.2 µM (inactive). For the same molecule, the GI50 (SN12C) was 37 µM (inactive), the GI50 (SNB-19) was 37.8 µM (inactive) and the GI50 (SNB-75) was 24.8 µM (inactive). The GI50 (SNB-78) was 30.1 µM (inactive), the GI50 (SW-620) was 26.4 µM (inactive) and the GI50 (TK-10) was 41.1 µM (inactive). For the same molecule, the GI50 (U-251) was 27.9 µM (inactive), the GI50 (UACC-257) was 42.2 µM (inactive) and the GI50 (UACC-62) was 19 µM (inactive). The GI50 (UO-31) was 70.3 µM (inactive).

In the case of `COc1ccc2c(c[n+](C)c3c4cc5c(cc4ccc23)OCO5)c1OC` [CHELERYTHRINE CHLORIDE], the GI50 (CAKI-1) is reported as 1.91 µM (inactive), the GI50 (DLD-1) is reported as 1.7 µM (inactive) and the GI50 (DMS-114) is reported as 2.18 µM (inactive). For the same molecule, the GI50 (DMS-273) was 2.04 µM (inactive), the GI50 (HOP-18) was 1.8 µM (inactive) and the GI50 (KM-20L2) was 1.74 µM (inactive). For the same molecule, the GI50 (LXFL 529) was 1.73 µM (inactive), the GI50 (M19-MEL) was 1.6 µM (inactive) and the GI50 (NCI-H522) was 2.14 µM (inactive). The GI50 (SK-MEL-2) was 2.04 µM (inactive), the GI50 (SNB-78) was 2 µM (inactive) and the GI50 (SR) was 1.28 µM (inactive).
